Results taken from patent US20250296971A1, “GASTRIC INHIBITORY PEPTIDE RECEPTOR LIGANDS” (priority 2021, published 2025).
*1 amine or outer side, *2 acyl side, *3 side chain or, on linkers, in order; H or OH if unused. Where a SMILES comes first, the peptide text is derived from it. Bridges are numbered along the chain shown (N, C = ends). Side-chain parts run from the residue outwards. [ ]: non-standard residue; d: D form. The star is where a group is joined. X5 = NC(=O)[C@H](CCCCNC(=O)CN1CCN(CC(=O)O)CCN(CC(=O)O)CCN(CC(=O)O)CC1)NC(=O)CCC(=O)NCCCOCCOCCOCCCN*; NH(1-deoxy-D-glucityl) = OC[C@@H](O)[C@@H](O)[C@H](O)[C@@H](O)CN*; Pro(trans-4-NH2) = O=C([C@@H]1C[C@@H](N[*:3])CN1[*:1])[*:2]; DOTA = O=C(O)CN1CCN(CC(=O)O)CCN(CC(=O)*)CCN(CC(=O)O)CC1; X9 = O=C(O)CN1CCN(CC(=O)O)CCN([C@H](CCC(=O)*)C(=O)O)CC1; Trp(5-Br) = N[C@@H](Cc1c[nH]c2ccc(Br)cc12)C(=O)O; Trp(5-Cl) = N[C@@H](Cc1c[nH]c2ccc(Cl)cc12)C(=O)O; Pyridine(2,6-diCH2) = c1cc(C[*:1])nc(C[*:2])c1; Phe(2-Cl) = N[C@@H](Cc1ccccc1Cl)C(=O)O; Pro(4R-NH2) = N[C@H]1CN[C@H](C(=O)O)C1; 1Nal = N[C@@H](Cc1cccc2ccccc12)C(=O)O; Desaminotyrosyl = O=C(CCc1ccc(O)cc1)*; mXylylene = c1cc(C[*:1])cc(C[*:2])c1; Glutaryl = O=C(CCCC(=O)[*:2])[*:1]; X6 = c1cc(CSCCN[*:2])nc(C[*:1])c1; Cya = N[C@@H](CS(=O)(=O)O)C(=O)O; Hyp = O=C(O)[C@@H]1C[C@@H](O)CN1; X1 = O=C(CN1CCC(N[*:1])CC1)[*:2]; hCys = N[C@@H](CCS)C(=O)O; Ac6c = NC1(C(=O)O)CCCCC1; Api = NC1(C(=O)O)CCNCC1; Thp = NC1(C(=O)O)CCOCC1; Aib = CC(C)(N)C(=O)O

Target: T1, GIPR (CHO-K1-hGIPR cells) (Homo sapiens, UniProt P48546)
T1 construct: host or cells: CHO-K1
T1 sequence (P48546 22-466): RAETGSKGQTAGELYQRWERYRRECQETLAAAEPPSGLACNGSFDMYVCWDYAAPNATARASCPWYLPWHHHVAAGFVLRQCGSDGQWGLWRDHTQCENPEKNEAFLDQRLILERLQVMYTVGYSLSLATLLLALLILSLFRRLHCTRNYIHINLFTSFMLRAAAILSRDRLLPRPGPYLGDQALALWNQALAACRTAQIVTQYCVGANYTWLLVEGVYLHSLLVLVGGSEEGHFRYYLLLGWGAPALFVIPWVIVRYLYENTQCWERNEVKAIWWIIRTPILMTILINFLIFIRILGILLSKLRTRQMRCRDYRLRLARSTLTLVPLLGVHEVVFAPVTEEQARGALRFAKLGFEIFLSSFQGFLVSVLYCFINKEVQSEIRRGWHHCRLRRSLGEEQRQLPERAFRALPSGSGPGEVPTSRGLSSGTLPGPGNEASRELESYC
Test: FACS binding assay
Details: competition with 20 nM GIP-057, 4° C. for 1 hour, read-out: pIC50 Category (converted)
In short: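 Median fluorescence in the APC channel, measured on washed CHO-K1 cells overexpressing human GIPR, was fitted by four-parameter logistic regression against peptide concentration to yield EC50 or IC50 values. Secondary labelling used APC-streptavidin (1 μg/mL, 30 min, ice).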

Compound	IC50 [nM]
CC[C@H](C)[C@@H]1NC(=O)[C@H](CC(C)C)NC(=O)C(C)(C)NC(=O)[C@@H](NC(=O)[C@@H](CC(C)C)NC(=O)[C@H](CCC(=O)O)NC(=O)[C@@H]2C[C@@H](O)CN2C(=O)[C@H](Cc2c[nH]c3ccc(Cl)cc23)NC(=O)CNC(=O)[C@H](CS(=O)(=O)O)NC(C)=O)CSCc2cccc(n2)CSCCNC1=O [GIP-316, Ac-Cya-Gly-5Clw-Hyp-Glu-leu-[Cys(2Lut)-Aib-Leu-Ile-AET]] (Ac-[Cya]G[Trp(5-Cl)][Hyp]E[dL]C[Aib]LI; linker 7-C via X6)	100 to 794
CC[C@H](C)[C@@H]1NC(=O)[C@H](CC(C)C)NC(=O)C2(CCOCC2)NC(=O)[C@@H](NC(=O)[C@@H](CC(C)C)NC(=O)[C@H](CCC(=O)O)NC(=O)[C@@H]2C[C@@H](NC(=O)CN3CCN(CC(=O)O)CCN(CC(=O)O)CCN(CC(=O)O)CC3)CN2C(=O)[C@H](Cc2c[nH]c3ccc(Cl)cc23)NC(=O)[C@H](Cc2ccccc2Cl)NC(=O)[C@H](CC(=O)O)NC(C)=O)CSCc2cccc(n2)CSC[C@@H](C(N)=O)NC1=O [GIP-390, Ac-Asp-Ocf-5Clw-Tap (DOTA)-Glu-leu-[Cys(2Lut)-Thp-Leu-Ile-Cys]-NH2] (Ac-D[Phe(2-Cl)][Trp(5-Cl)][Pro(trans-4-NH2)](DOTA)E[dL]C[Thp]LIC-NH2; linker 7-11 via Pyridine(2,6-diCH2))	10 to 79.4
CC[C@H](C)[C@@H]1NC(=O)[C@H](CC(C)C)NC(=O)[C@H](C)NC(=O)[C@@H](NC(=O)[C@H](C)NC(=O)[C@H](CCC(=O)O)NC(=O)[C@@H]2CCCN2C(=O)[C@H](Cc2c[nH]c3ccccc23)NC(=O)[C@H](Cc2c[nH]c3ccccc23)NC(=O)[C@H](CC(=O)O)NC(=O)[C@H](Cc2ccc(O)cc2)NC(=O)[C@@H](N)CCSC)CSCc2cccc(c2)CSC[C@@H](C(N)=O)NC1=O [GIP-336] (H-MYDWWPEACALIC-NH2; linker 9-13 via mXylylene)	> 1000
CC[C@H](C)[C@@H]1NC(=O)[C@H](CC(C)C)NC(=O)C2(CCOCC2)NC(=O)[C@@H](NC(=O)[C@@H](CC(C)C)NC(=O)[C@H](CCC(=O)O)NC(=O)[C@@H]2C[C@@H](O)CN2C(=O)[C@H](Cc2c[nH]c3ccc(Cl)cc23)NC(=O)[C@H](Cc2c[nH]c3ccccc23)NC(=O)[C@@H](CC(=O)O)NC(C)=O)CSCc2cccc(n2)CSC[C@@H](C(N)=O)NC1=O [GIP-381, Ac-asp-Trp-5Clw-Hyp-Glu-leu-[Cys(2Lut)-Thp-Leu-Ile-Cys]-NH2] (Ac-[dD]W[Trp(5-Cl)][Hyp]E[dL]C[Thp]LIC-NH2; linker 7-11 via Pyridine(2,6-diCH2))	< 10
CC[C@H](C)[C@@H]1NC(=O)[C@H](CC(C)C)NC(=O)[C@H](C)NC(=O)[C@@H](NC(=O)[C@H](CC(C)C)NC(=O)[C@H](CCC(=O)O)NC(=O)[C@H](C)NC(=O)[C@H](Cc2c[nH]c3ccccc23)NC(=O)[C@H](Cc2c[nH]c3ccccc23)NC(=O)[C@H](CC(=O)O)NC(=O)[C@H](Cc2ccc(O)cc2)NC(=O)[C@@H](N)CCSC)CSCc2cccc(c2)CSC[C@@H](C(N)=O)NC1=O [GIP-311] (H-MYDWWAELCALIC-NH2; linker 9-13 via mXylylene)	100 to 794
CC(=O)N[C@@H](CC(=O)O)C(=O)N[C@@H](Cc1c[nH]c2ccccc12)C(=O)N[C@@H](Cc1c[nH]c2ccc(Cl)cc12)C(=O)N1C[C@H](O)C[C@H]1C(=O)N[C@@H](CCC(=O)O)C(=O)N[C@H](CC(C)C)C(=O)N[C@H]1CSCc2cccc(n2)CSC[C@@H](C(N)=O)NC(=O)[C@H](Cc2ccccc2)NC(=O)[C@H](CC(C)C)NC(=O)C2(CCOCC2)NC1=O [GIP-266, Ac-Asp-Trp-5Clw-Hyp-Glu-leu-[Cys(2Lut)-Thp-Leu-Phe-Cys]-NH2] (Ac-DW[Trp(5-Cl)][Hyp]E[dL]C[Thp]LFC-NH2; linker 7-11 via Pyridine(2,6-diCH2))	10 to 79.4

Same assay, conditions: competition with 20 nM GIP-057, 4° C., 1 hour, read-out: pIC50 Category (converted)

Compound	IC50 [nM]
CC[C@H](C)[C@@H]1NC(=O)[C@H](CC(C)C)NC(=O)C2(CCOCC2)NC(=O)[C@@H](NC(=O)[C@@H](CC(C)C)NC(=O)[C@H](CCC(=O)O)NC(=O)[C@@H]2C[C@@H](O)CN2C(=O)[C@H](Cc2c[nH]c3ccc(Cl)cc23)NC(=O)[C@H](Cc2c[nH]c3ccccc23)NC(=O)[C@H](CC(=O)O)NC(C)=O)CSCc2cccc(n2)CSCC[C@@H](C(N)=O)NC1=O [GIP-201, Ac-Asp-Trp-5Clw-Hyp-Glu-leu-[Cys(2Lut)-Thp-Leu-Ile-Hcy]-NH2] (Ac-DW[Trp(5-Cl)][Hyp]E[dL]C[Thp]LI[hCys]-NH2; linker 7-11 via Pyridine(2,6-diCH2))	< 10
CC[C@H](C)[C@@H]1NC(=O)[C@H](CC(C)C)NC(=O)C2(CCCCC2)NC(=O)[C@@H](NC(=O)[C@@H](CC(C)C)NC(=O)[C@H](CCC(=O)O)NC(=O)[C@@H]2CCCN2C(=O)[C@H](Cc2cccc3ccccc23)NC(=O)[C@H](Cc2c[nH]c3ccccc23)NC(=O)[C@H](CC(=O)O)NC(C)=O)CSCc2cccc(c2)CSC[C@@H](C(=O)NCCCOCCOCCOCCCNC(=O)CCC(=O)N[C@@H](CCCCNC(=O)CN2CCN(CC(=O)O)CCN(CC(=O)O)CCN(CC(=O)O)CC2)C(N)=O)NC1=O [GIP-080, Ac-Asp-Trp-1Ni-Pro-Glu-leu-[Cys(3MeBn)-Egz-Leu-Ile-Cys]-Ttds-Lys(DOTA)-NH2] (Ac-DW[1Nal]PE[dL]C[Ac6c]LIC-X5; linker 7-11 via mXylylene)	< 10
CC[C@H](C)[C@@H]1NC(=O)[C@H](CC(C)C)NC(=O)C(C)(C)NC(=O)[C@@H](NC(=O)[C@@H](CC(C)C)NC(=O)[C@H](CCC(=O)O)NC(=O)[C@@H]2CCCN2C(=O)[C@H](Cc2c[nH]c3ccc(Br)cc23)NC(=O)[C@H](Cc2c[nH]c3ccccc23)NC(=O)[C@H](CC(=O)O)NC(C)=O)CSCc2cccc(c2)CSC[C@@H](C(=O)NCCCOCCOCCOCCCNC(=O)CCC(=O)N[C@@H](CCCCNC(=O)CN2CCN(CC(=O)O)CCN(CC(=O)O)CCN(CC(=O)O)CC2)C(N)=O)NC1=O [GIP-082, Ac-Asp-Trp-5Brw-Pro-Glu-leu-[Cys(3MeBn)-Aib-Leu-Ile-Cys]-Ttds-Lys(DOTA)-NH2] (Ac-DW[Trp(5-Br)]PE[dL]C[Aib]LIC-X5; linker 7-11 via mXylylene)	< 10
CC[C@H](C)[C@@H]1NC(=O)[C@H](CC(C)C)NC(=O)C2(CCN(C(=O)CNC(=O)CC[C@H](C(=O)O)N3CCN(CC(=O)O)CCN(CC(=O)O)CC3)CC2)NC(=O)[C@@H](NC(=O)[C@@H](CC(C)C)NC(=O)[C@H](CCC(=O)O)NC(=O)[C@@H]2C[C@@H](N)CN2C(=O)[C@H](Cc2c[nH]c3ccc(Cl)cc23)NC(=O)[C@H](Cc2c[nH]c3ccccc23)NC(=O)[C@H](CC(=O)O)NC(=O)CCCC(=O)NC[C@H](O)[C@@H](O)[C@H](O)[C@H](O)CO)CSCc2cccc(n2)CSC[C@@H](C(=O)NC2CCN(CC(=O)N[C@H](CCC(=O)NC[C@H](O)[C@@H](O)[C@H](O)[C@H](O)CO)C(N)=O)CC2)NC1=O [GIP-031, AGLU-Glutar-Asp-Trp-5Clw-Tap-Glu-leu-[Cys(2Lut)-Apc(NODAGA-Gly)-Leu-Ile-Cys]-APAc-glu(AGLU)-NH2] ({NH(1-deoxy-D-glucityl)-Glutaryl}-DW[Trp(5-Cl)][Pro(4R-NH2)]E[dL]C[Api]([Gly-X9])LIC[X1][dE](NH(1-deoxy-D-glucityl))-NH2; linker 7-11 via Pyridine(2,6-diCH2))	< 10
CC[C@H](C)[C@@H]1NC(=O)[C@H](CC(C)C)NC(=O)C(C)(C)NC(=O)[C@@H](NC(=O)[C@H](CC(C)C)NC(=O)[C@H](CCC(=O)O)NC(=O)[C@@H]2CCCN2C(=O)[C@H](Cc2cccc3ccccc23)NC(=O)[C@H](Cc2c[nH]c3ccccc23)NC(=O)[C@H](CC(=O)O)NC(C)=O)CSCc2cccc(c2)CSC[C@@H](C(=O)NCCCOCCOCCOCCCNC(=O)CCC(=O)N[C@@H](CCCCNC(=O)CN2CCN(CC(=O)O)CCN(CC(=O)O)CCN(CC(=O)O)CC2)C(N)=O)NC1=O [GIP-074, Ac-Asp-Trp-1Ni-Pro-Glu-Leu-[Cys(3MeBn)-Aib-Leu-Ile-Cys]-Ttds-Lys(DOTA)-NH2] (Ac-DW[1Nal]PELC[Aib]LIC-X5; linker 7-11 via mXylylene)	< 10
CC[C@H](C)[C@@H]1NC(=O)[C@H](CC(C)C)NC(=O)C(C)(C)NC(=O)[C@@H](NC(=O)[C@@H](CC(C)C)NC(=O)[C@H](CCC(=O)O)NC(=O)[C@@H]2CCCN2C(=O)[C@H](Cc2c[nH]c3ccccc23)NC(=O)[C@H](Cc2c[nH]c3ccccc23)NC(=O)[C@H](CC(=O)O)NC(=O)CCc2ccc(O)cc2)CSCc2cccc(c2)CSC[C@@H](C(=O)NCCCOCCOCCOCCCNC(=O)CCC(=O)N[C@@H](CCCCNC(=O)CN2CCN(CC(=O)O)CCN(CC(=O)O)CCN(CC(=O)O)CC2)C(N)=O)NC1=O [GIP-137, 4OHPhp-Asp-Trp-Trp-Pro-Glu-leu-[Cys(3MeBn)-Aib-Leu-Ile-Cys]-Ttds-Lys(DOTA)-NH2] (Desaminotyrosyl-DWWPE[dL]C[Aib]LIC-X5; linker 7-11 via mXylylene)	10 to 79.4
CC[C@H](C)[C@@H]1NC(=O)[C@H](CC(C)C)NC(=O)C2(CCOCC2)NC(=O)[C@@H](NC(=O)[C@@H](CC(C)C)NC(=O)[C@H](CC(N)=O)NC(=O)[C@@H]2C[C@@H](O)CN2C(=O)[C@H](Cc2c[nH]c3ccc(Cl)cc23)NC(=O)[C@H](Cc2c[nH]c3ccccc23)NC(=O)[C@H](CC(=O)O)NC(C)=O)CSCc2cccc(n2)CSC[C@@H](C(N)=O)NC1=O [GIP-205, Ac-Asp-Trp-5Clw-Hyp-Asn-leu-[Cys(2Lut)-Thp-Leu-Ile-Cys]-NH2] (Ac-DW[Trp(5-Cl)][Hyp]N[dL]C[Thp]LIC-NH2; linker 7-11 via Pyridine(2,6-diCH2))	< 10
